# Measured values from the supplement of paper PMC10307832.
# Experiments:
# Test in all cases: relative viability (nuclei count vs DMSO), 5 days (fraction); higher = more cells survive
# Doramapimod + Luminespib = compound: Cc1ccc(-n2nc(C(C)(C)C)cc2NC(=O)Nc2ccc(OCCN3CCOCC3)c3ccccc23)cc1 [Doramapimod] + CCNC(=O)c1noc(-c2cc(C(C)C)c(O)cc2O)c1-c1ccc(CN2CCOCC2)cc1 [Luminespib] (partner 0.01 µM)
# Method in brief: (§1)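 Lung cancer cell lines were seeded in 1536-well plates and dosed by pin tool the next day, with either a single drug or a fixed anchor-drug dose combined with five library-drug doses (not always all listed) spaced in √10 steps. Five days later, one step fixed the cells and stained their nuclei (final 0.05% Triton X-100, 1% formaldehyde, 1 ug/ml Hoechst), and nuclei were counted on 4× images. Relative viability is the nuclei count in treated wells divided by the count in vehicle wells, and each value is the median of duplicate plates.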
# RAF265 + Luminespib = compound: Cn1c(Nc2ccc(C(F)(F)F)cc2)nc2cc(Oc3ccnc(-c4ncc(C(F)(F)F)[nH]4)c3)ccc21 [RAF265] + CCNC(=O)c1noc(-c2cc(C(C)C)c(O)cc2O)c1-c1ccc(CN2CCOCC2)cc1 [Luminespib] (partner 0.01 µM)
# Method in brief: as §1
# RAF265 + Crizotinib = compound: Cn1c(Nc2ccc(C(F)(F)F)cc2)nc2cc(Oc3ccnc(-c4ncc(C(F)(F)F)[nH]4)c3)ccc21 [RAF265] + C[C@@H](Oc1cc(-c2cnn(C3CCNCC3)c2)cnc1N)c1c(Cl)ccc(F)c1Cl [Crizotinib] (partner 1 µM)
# Method in brief: as §1
# RAF265 + Phenformin = compound: Cn1c(Nc2ccc(C(F)(F)F)cc2)nc2cc(Oc3ccnc(-c4ncc(C(F)(F)F)[nH]4)c3)ccc21 [RAF265] + N=C(N)NC(=N)NCCc1ccccc1 [Phenformin] (partner 250 µM)
# Method in brief: as §1
Cell Line,relative viability (Doramapimod + Luminespib; first compound 0.02 µM),relative viability (Doramapimod + Luminespib; first compound 0.06325 µM),relative viability (Doramapimod + Luminespib; first compound 0.2 µM),relative viability (Doramapimod + Luminespib; first compound 0.6325 µM),relative viability (Doramapimod + Luminespib; first compound 2 µM),relative viability (RAF265 + Luminespib; first compound 0.01 µM),relative viability (RAF265 + Luminespib; first compound 0.03162 µM),relative viability (RAF265 + Luminespib; first compound 0.1 µM),relative viability (RAF265 + Luminespib; first compound 1 µM),relative viability (RAF265 + Crizotinib; first compound 0.01 µM),relative viability (RAF265 + Crizotinib; first compound 0.03162 µM),relative viability (RAF265 + Crizotinib; first compound 0.1 µM),relative viability (RAF265 + Crizotinib; first compound 1 µM),relative viability (RAF265 + Phenformin; first compound 0.01 µM),relative viability (RAF265 + Phenformin; first compound 0.03162 µM),relative viability (RAF265 + Phenformin; first compound 0.1 µM),relative viability (RAF265 + Phenformin; first compound 1 µM),relative viability (RAF265 + Luminespib; first compound 0.3162 µM),relative viability (RAF265 + Crizotinib; first compound 0.3162 µM),relative viability (RAF265 + Phenformin; first compound 0.3162 µM)
HCC-827,0.569,0.611,0.751,0.831,0.625,0.837,0.652,0.74,0.132,0.931,1,1.01,0.871,0.431,0.444,0.41,0.398,,,
NCI-H650,0.869,0.83,0.827,0.853,0.713,0.803,0.785,0.834,0.339,0.886,0.722,0.684,0.317,0.469,0.438,0.383,0.289,0.497,0.808,0.348
CAL-12T,0.363,0.381,0.345,0.364,0.395,0.238,0.426,0.341,0.0919,0.66,0.456,0.638,0.298,0.581,0.521,0.426,0.363,0.491,0.441,0.516
NCI-H522,0.929,1.07,1,1.12,1.09,0.984,1.26,1.27,0.957,,,,,0.677,0.648,0.655,0.569,,,0.33
IA-LM,,,,,,,,,,0.711,0.646,0.803,0.642,,,,,,0.768,
EPLC-272H,0.368,0.296,0.741,0.494,0.187,0.169,0.224,0.333,0.177,0.765,0.868,1.32,0.434,0.267,0.323,0.261,0.206,0.138,0.472,0.249
A-427,0.979,0.806,1.08,,0.918,0.691,0.821,1.16,0.226,0.882,0.639,0.927,0.159,0.361,0.266,0.307,0.124,0.631,0.644,0.204
NCI-H647,0.189,0.224,0.151,0.347,0.154,0.256,0.103,0.171,0.0987,1.07,0.938,0.873,0.689,0.432,0.515,0.38,0.212,0.153,0.541,0.282
